According to patent publication US20110237566A1, “Therapeutic Macrolide Compounds and Their Use” (MERLION PHARMACEUTICALS PTE LTD, priority 2008, published 2011):

Legend:
[1] = Microsomal stability assay; assay type: in vitro ADME; settings: human, human liver microsomes, pH 7.4, human liver microsomes, 37° C.; for half-life at 50 μM: read-out: T1/2, 50 μm microsomal stability assay
Procedure: 50 μL test sample (50 mM), 25 μL human liver microsomes (20 mg/ml, BD Gentest, catalog no. 452161), 281 μL potassium phosphate buffer (100 mM, pH 7.4), 5 μL NaDPH regenerating system, solution B (BD Biosciences, catalog no. 451200), and 114 μL of water were pre-incubated for 5 min at 37° C. The reaction was initiated by the addition of 25 μL NaDPH regenerating system, solution A (BD Biosciences, catalog no. 451220). After an incubation period of 0, 15, 30, and 60 min at 37° C., 100 μL of the reaction mixture was transferred to an eppendorf tube, followed by addition of 100 μL chilled acetonitrile to quench the reaction. The sample was then centrifuged at 14,000 rpm for 5 min. The supernatant was submitted for LCMS analysis.

[2] = test system: A549 human alveolar epithelial cell; assay: Growth inhibition (cytotoxicity), A549 assay, Cell Titer Glo; assay type: cell-based; settings: A549, 72 h, A549 cells, 72 hour incubation
Procedure: (§1) The cytotoxicity of each of the MC compounds as described herein was evaluated in the following cell types: A549 human alveolar epithelial cell, PC3 human prostate carcinoma cell, COLO205 human colon adenocarcinoma cell, HEPG2 human hepatoma, OVCAR3 human ovary adenocarcinoma cell, and HL60 human acute myelocytic leukemia (AML) cell.
(§2) A549, PC3, COLO205 and HEPG2 cells were cultured in DMEM (Invitrogen Corporation) with 10% fetal bovine serum, whereas OVCAR3 and HL60 were cultured in the same medium but with 20% fetal bovine serum. For cytotoxocoty measurements the cells were seeded in 96 or 384 well tissue culture treated microtitre plates overnight. Compounds were diluted in appropriate buffers and added to the cells the next day. Following a further 72 hour incubation, cell viability was determined using Cell Titer Glo (Promega Corporation) according to the manufacturers' instructions, and the luminescence measured in Luminoskan Ascent (Thermo Fisher Scientific Inc.).

[3] = Stability determination at PBS pH7.2; assay type: physicochemical; settings: PBS pH 7.2, pH 7.2, PBS pH7.2, 37° C.; read-out: T1/2, PBS buffer stability assay
Procedure: Around 0.1 mg of the dried sample was placed in a 2-mL vial, added with 1 mL of PBS pH7.2 and then mixed using a Vortex mixer. The mixture was filtered through a 4 mm Nylon filter with 0.2 μm pore size and the filtrate collected in an hplc vial. The vial was placed in an hplc autosampler maintained at 37° C. just before injection (time=0 h). The stability of the sample was calculated by determining the amount left in solution at specific time intervals. This study was carried out in three trials with the buffer solution as a blank.

[4] = test system: OVCAR3 human ovary adenocarcinoma cell; assay: Growth inhibition (cytotoxicity), OVCAR3 assay, Cell Titer Glo; assay type: cell-based; settings: Homo sapiens, OVCAR-3, 72 h, OVCAR3 cells, 72 hour incubation
Procedure: as §1, §2

[5] = test system: PC3 human prostate carcinoma cell; assay: Growth inhibition (cytotoxicity), PC3A assay, Cell Titer Glo; assay type: cell-based; settings: PC-3, 72 h, PC3 cells, 72 hour incubation
Procedure: as §1, §2

Structure (SMILES)	half-life at 50 μM [1] [min]	IC50 [2] [µM]	further results
CC[C@H](OC)[C@@H](C)[C@H]1O[C@@H]1C(NCCCN1CCOCC1)C(C)(O)/C=C/C=C(\C)C1OC(=O)C[C@H](O)CC[C@@](C)(O)[C@@H](OC(C)=O)/C=C/[C@@H]1C.O=CO (single isomer, unassigned) [MC-009b]	> 30	–	–
CC[C@H](OC)[C@@H](C)[C@H]1O[C@@H]1C(N(CCO)Cc1ccc(C(F)(F)F)cc1)C(C)(O)/C=C/C=C(\C)[C@H]1OC(=O)C[C@H](O)CCC(C)(O)[C@@H](OC(C)=O)/C=C/[C@@H]1C (stereo in doubt) [MC-053]	–	≤ 1	–
CC[C@H](OC)[C@@H](C)[C@H]1O[C@@H]1C(NCc1ccc(N2CCOCC2)cc1)C(C)(O)/C=C/C=C(\C)C1OC(=O)C[C@H](O)CC[C@@](C)(O)[C@@H](OC(C)=O)/C=C/[C@@H]1C (some centres unmarked) [MC-037]	–	–	half-life at 0.1 mg/mL [3]: > 30 min
CC[C@H](OC)[C@@H](C)[C@H]1O[C@@H]1C(N(CCO)Cc1ccc2ccccc2c1)C(C)(O)/C=C/C=C(\C)[C@H]1OC(=O)C[C@H](O)CCC(C)(O)[C@@H](OC(C)=O)/C=C/[C@@H]1C (stereo in doubt) [MC-051]	–	≤ 1	–
CC[C@H](OC)[C@@H](C)[C@H]1O[C@@H]1C(NCc1c(Cl)cccc1Cl)C(C)(O)/C=C/C=C(\C)C1OC(=O)C[C@H](O)CC[C@@](C)(O)[C@@H](OC(C)=O)/C=C/[C@@H]1C (single isomer, unassigned) [MC-018a]	–	≤ 1	–
CC[C@H](OC)[C@@H](C)[C@H]1O[C@@H]1C(NCc1ccc(F)c(F)c1)C(C)(O)/C=C/C=C(\C)[C@H]1OC(=O)C[C@H](O)CC[C@@](C)(O)[C@@H](OC(C)=O)/C=C/[C@@H]1C.O=CO (some centres unmarked) [MC-029]	> 30	–	IC50 [4]: ≤ 0.1 µM; IC50 [5]: ≤ 0.1 µM
CC[C@H](OC)[C@@H](C)[C@H]1O[C@@H]1C(NCc1ccc(Cl)cc1F)C(C)(O)/C=C/C=C(\C)[C@H]1OC(=O)C[C@H](O)CC[C@@](C)(O)[C@@H](OC(C)=O)/C=C/[C@@H]1C.O=CO (some centres unmarked) [MC-032]	> 30	–	IC50 [4]: ≤ 0.1 µM; IC50 [5]: ≤ 0.1 µM
CC[C@H](OC)[C@@H](C)[C@H]1O[C@@H]1C(NCc1ccc(NC2CC2)cc1)C(C)(O)/C=C/C=C(\C)C1OC(=O)C[C@H](O)CC[C@@](C)(O)[C@@H](OC(C)=O)/C=C/[C@@H]1C (single isomer, unassigned) [MC-044a]	–	≤ 1	–
CC[C@H](OC)[C@@H](C)[C@H]1O[C@@H]1C(NCc1ccc(Br)cc1)C(C)(O)/C=C/C=C(\C)C1OC(=O)C[C@H](O)CC[C@@](C)(O)[C@@H](OC(C)=O)/C=C/[C@@H]1C.O=CO (single isomer, unassigned) [MC-014b]	> 30	–	–
CC[C@H](OC)[C@@H](C)[C@H]1O[C@@H]1C(NCc1ccc2[nH]ccc2c1)C(C)(O)/C=C/C=C(\C)C1OC(=O)C[C@H](O)CC[C@@](C)(O)[C@@H](OC(C)=O)/C=C/[C@@H]1C.O=CO (single isomer, unassigned) [MC-043a]	> 30	–	–
CC[C@H](OC)[C@@H](C)[C@H]1O[C@@H]1C(N(CCCO)Cc1ccc(Cl)cc1)C(C)(O)/C=C/C=C(\C)[C@H]1OC(=O)C[C@H](O)CC[C@@](C)(O)[C@@H](OC(C)=O)/C=C/[C@@H]1C (some centres unmarked) [MC-045]	–	≤ 1	–
CC[C@H](OC)[C@@H](C)[C@H]1O[C@@H]1C(NCc1ccc2c(c1)OCO2)C(C)(O)/C=C/C=C(\C)C1OC(=O)C[C@H](O)CC[C@@](C)(O)[C@@H](OC(C)=O)/C=C/[C@@H]1C.O=CO (single isomer, unassigned) [MC-030a]	> 30	–	IC50 [4]: ≤ 0.1 µM; IC50 [5]: ≤ 0.1 µM
CC[C@H](OC)[C@@H](C)[C@H]1O[C@@H]1C(NCCc1ccc(Cl)cc1Cl)C(C)(O)/C=C/C=C(\C)C1OC(=O)C[C@H](O)CC[C@@](C)(O)[C@@H](OC(C)=O)/C=C/[C@@H]1C (single isomer, unassigned) [MC-017b]	–	≤ 1	–
CC[C@H](OC)[C@@H](C)[C@H]1O[C@@H]1C(NCc1ccc(N2CCCNCC2)cc1)C(C)(O)/C=C/C=C(\C)C1OC(=O)C[C@H](O)CC[C@@](C)(O)[C@@H](OC(C)=O)/C=C/[C@@H]1C (single isomer, unassigned) [MC-041a]	–	≤ 1	–
CC[C@H](OC)[C@@H](C)[C@H]1O[C@@H]1C(NCc1cccc(Cl)c1)C(C)(O)/C=C/C=C(\C)C1OC(=O)C[C@H](O)CC[C@@](C)(O)[C@@H](OC(C)=O)/C=C/[C@@H]1C (single isomer, unassigned) [MC-027a]	–	≤ 1	–
CC[C@H](OC)[C@@H](C)[C@H]1O[C@@H]1C(NCc1ccc2[nH]ccc2c1)C(C)(O)/C=C/C=C(\C)C1OC(=O)C[C@H](O)CC[C@@](C)(O)[C@@H](OC(C)=O)/C=C/[C@@H]1C (some centres unmarked) [MC-043c]	–	≤ 1	–
CC[C@H](OC)[C@@H](C)[C@H]1O[C@@H]1C(NCc1ccc(N2CCOCC2)cc1)C(C)(O)/C=C/C=C(\C)C1OC(=O)C[C@H](O)CC[C@@](C)(O)[C@@H](OC(C)=O)/C=C/[C@@H]1C (some centres unmarked) [MC-037d]	> 30	–	–
CC[C@H](OC)[C@@H](C)[C@H]1O[C@@H]1C(NCc1ccc2c(c1)OCO2)C(C)(O)/C=C/C=C(\C)C1OC(=O)C[C@H](O)CC[C@@](C)(O)[C@@H](OC(C)=O)/C=C/[C@@H]1C (some centres unmarked) [MC-030]	–	–	half-life at 0.1 mg/mL [3]: > 30 min
CC[C@H](OC)[C@@H](C)[C@H]1O[C@@H]1C(NCc1ccc(N2CC(C)OC(C)C2)cc1)C(C)(O)/C=C/C=C(\C)C1OC(=O)C[C@H](O)CC[C@@](C)(O)[C@@H](OC(C)=O)/C=C/[C@@H]1C (some centres unmarked) [MC-042c]	–	≤ 1	–
CC[C@H](OC)[C@@H](C)[C@H]1O[C@@H]1C(NCC1CCCCCC1)C(C)(O)/C=C/C=C(\C)[C@H]1OC(=O)C[C@H](O)CC[C@@](C)(O)[C@@H](OC(C)=O)/C=C/[C@@H]1C.O=CO (some centres unmarked) [MC-034]	–	≤ 1	half-life at 5 μM ([1]; 5 μm, read-out: T1/2, 5 μm microsomal stability assay): 6.1 min
CC[C@H](OC)[C@@H](C)C1O[C@@H]1C(N(C)Cc1ccc(Cl)cc1)C(C)(O)/C=C/C=C(\C)[C@H]1OC(=O)C[C@H](O)CC[C@@](C)(O)[C@@H](OC(C)=O)/C=C/[C@@H]1C (stereo in doubt) [MC-047]	–	–	half-life at 0.1 mg/mL [3]: > 30 min
CC[C@H](OC)[C@@H](C)[C@H]1O[C@@H]1C(NCc1ccc2[nH]ccc2c1)C(C)(O)/C=C/C=C(\C)C1OC(=O)C[C@H](O)CC[C@@](C)(O)[C@@H](OC(C)=O)/C=C/[C@@H]1C (some centres unmarked) [MC-043]	–	–	half-life at 0.1 mg/mL [3]: > 30 min
CC[C@H](OC)[C@@H](C)C1O[C@@H]1C(NCc1ccc(Cl)nc1)C(C)(O)/C=C/C=C(\C)[C@H]1OC(=O)C[C@H](O)CC[C@@](C)(O)[C@@H](OC(C)=O)/C=C/[C@@H]1C (stereo in doubt) [MC-046]	–	–	half-life at 0.1 mg/mL [3]: > 30 min
CC[C@H](OC)[C@@H](C)[C@H]1O[C@@H]1C(NCc1ccccc1)C(C)(/C=C/C=C(\C)[C@H]1OC(=O)C[C@H](O)CCC(C)(O)[C@@H](OC(C)=O)/C=C/[C@@H]1C)NCc1ccccc1 (some centres unmarked) [MC-001]	–	≤ 1	–
CC[C@H](OC)[C@@H](C)[C@H]1O[C@@H]1C1C(Cc2ccccc2)C(=O)OC1(C)/C=C/C=C(\C)C1OC(=O)C[C@H](O)CC[C@@](C)(O)[C@@H](OC(C)=O)/C=C/[C@@H]1C (single isomer, unassigned) [MC-012a]	–	≤ 1	–
CC[C@H](OC)[C@@H](C)[C@H]1O[C@@H]1C(NCc1ccc(C)c(F)c1)C(C)(O)/C=C/C=C(\C)[C@H]1OC(=O)C[C@H](O)CC[C@@](C)(O)[C@@H](OC(C)=O)/C=C/[C@@H]1C.O=CO (stereo in doubt) [MC-031]	> 30	–	IC50 [4]: ≤ 0.1 µM; IC50 [5]: ≤ 0.1 µM; half-life at 0.1 mg/mL [3]: > 30 min
CC[C@H](OC)[C@@H](C)[C@H]1O[C@@H]1C(NCc1ccc(Cl)nc1)C(C)(O)/C=C/C=C(\C)C1OC(=O)C[C@H](O)CC[C@@](C)(O)[C@@H](OC(C)=O)/C=C/[C@@H]1C.O=CO (single isomer, unassigned) [MC-046a]	> 30	–	–
CC[C@H](OC)[C@@H](C)[C@H]1O[C@@H]1C(NS(=O)(=O)c1ccc(F)c(F)c1)C(C)(O)/C=C/C=C(\C)C1OC(=O)C[C@H](O)CCC(C)(O)[C@@H](OC(C)=O)/C=C/[C@@H]1C (some centres unmarked) [MC-58b]	–	≤ 1	–
